One molecule from patent publication US6656940B2, “Tricyclic quinoxaline derivatives as protein tyrosine kinase inhibitors” (Sugen, Inc., priority 1997, dated 2003) can be followed below.

One assay has as its target T1, FLK-1 receptor (Mus musculus, UniProt P35918).
T1 construct: expressed in transfected cells; host or cells: NIH3T3 C7#3 cells
The assay can be described thus: FLK-1 ELISA (cellular/catalytic). The following applies: 50% inhibition of PTK activity compared to that in a control; read-out: FLK KINASE IC50. Type of assay: cell-based. Here is the method: (§1) The cellular/catalytic assays described herein are performed in an ELISA format. The general procedure is as follows: a compound is introduced to cells expressing the test kinase, either naturally or recombinantly, for a selected period of time after which, if the test kinase is a receptor, a ligand known to activate the receptor's activity is added. The cells are lysed and the lysate is transferred to the wells of an ELISA plate previously coated with a specific antibody recognizing the substrate of the enzymatic phosphorylation reaction. Non-substrate components of the cell lysate are washed away and the amount of phosphorylation on the substrate is detected with an antibody specifically recognizing phosphotyrosine and is compared with that of control cells that were not contacted with the test compound.
An ELISA assay is conducted to measure the kinase activity of the FLK-1 receptor and more specifically, the inhibition or activation of TK activity on the FLK-1 receptor. Specifically, the following assay can be conducted to measure kinase activity of the FLK-1 receptor in cells genetically engineered to express Flk-1.
k. NIH3T3 C7#3 Cells (FLK-1 expressing cells);
1. Coat Corning 96-well ELISA plates with 1.0 μg per well Cappel Anti-rabbit IgG antibody in 0.1M Na2CO3 pH 9.6. Bring final volume to 150 μl per well. Coat plates overnight at 4° C. […]
A general note: In an ELISA, binding on a coated surface is turned into a signal by an enzyme label.

The target in another assay is T2, human EGF-R (Homo sapiens, UniProt P00533).
T2 construct: expressed in transfected cells; host or cells: NIH 3T3/C7 cell line
T2 sequence (P00533 25-1210): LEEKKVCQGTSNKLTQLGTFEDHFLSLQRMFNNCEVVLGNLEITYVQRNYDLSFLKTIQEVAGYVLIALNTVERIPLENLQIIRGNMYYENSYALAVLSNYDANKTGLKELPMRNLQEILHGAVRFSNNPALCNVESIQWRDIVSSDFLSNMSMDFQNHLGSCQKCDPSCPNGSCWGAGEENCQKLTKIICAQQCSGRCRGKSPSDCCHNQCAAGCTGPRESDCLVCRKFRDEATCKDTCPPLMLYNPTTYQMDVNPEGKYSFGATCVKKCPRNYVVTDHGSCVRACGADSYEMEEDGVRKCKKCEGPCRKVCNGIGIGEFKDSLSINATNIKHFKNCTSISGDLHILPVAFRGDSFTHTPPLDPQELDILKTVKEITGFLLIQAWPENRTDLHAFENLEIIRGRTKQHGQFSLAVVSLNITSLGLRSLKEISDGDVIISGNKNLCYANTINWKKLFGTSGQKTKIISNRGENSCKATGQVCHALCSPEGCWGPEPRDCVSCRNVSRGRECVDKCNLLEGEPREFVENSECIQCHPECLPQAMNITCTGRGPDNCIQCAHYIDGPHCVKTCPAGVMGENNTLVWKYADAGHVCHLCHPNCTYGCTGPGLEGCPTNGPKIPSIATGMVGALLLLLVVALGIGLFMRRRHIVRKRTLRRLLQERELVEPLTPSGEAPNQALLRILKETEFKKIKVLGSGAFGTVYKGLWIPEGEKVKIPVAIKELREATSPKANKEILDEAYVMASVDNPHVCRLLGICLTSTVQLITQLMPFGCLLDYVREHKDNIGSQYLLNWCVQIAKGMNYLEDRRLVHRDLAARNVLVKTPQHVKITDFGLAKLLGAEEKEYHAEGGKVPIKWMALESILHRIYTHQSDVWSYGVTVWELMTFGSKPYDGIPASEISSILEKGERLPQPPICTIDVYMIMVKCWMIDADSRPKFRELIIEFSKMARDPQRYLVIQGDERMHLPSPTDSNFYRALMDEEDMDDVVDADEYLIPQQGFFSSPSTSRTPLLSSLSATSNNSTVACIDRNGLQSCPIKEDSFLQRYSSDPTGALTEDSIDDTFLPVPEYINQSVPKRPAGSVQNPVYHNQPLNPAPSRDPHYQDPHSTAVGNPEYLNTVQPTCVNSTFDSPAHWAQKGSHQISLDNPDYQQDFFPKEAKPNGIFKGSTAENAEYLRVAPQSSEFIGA
The experiment in a line: EGF Receptor ELISA (cellular/catalytic). Type of assay: cell-based. The following applies: 50% inhibition of PTK activity compared to that in a control; read-out: EGFR KINASE IC50. Here is the method: as §1
EGF Receptor kinase activity in cells genetically engineered to express human EGF-R can be measured as described below:
1. NIH 3T3/C7 cell line (Honegger, et al., Cell 51:199-209, 1987) can be use for this assay.
3. Resuspend cells in seeding medium (DMEM, 0.5% bovine serum), and count the cells using trypan blue. […]
12. The maximal phosphotyrosine signal is determined by subtracting the value of the negative controls from the positive controls. The percent inhibition of phosphotyrosine content for extract-containing wells is then calculated, after subtraction of the negative controls.

One may read the IC50 as the concentration that inhibits the measured activity by half.

T1 sequence (P35918 20-1345): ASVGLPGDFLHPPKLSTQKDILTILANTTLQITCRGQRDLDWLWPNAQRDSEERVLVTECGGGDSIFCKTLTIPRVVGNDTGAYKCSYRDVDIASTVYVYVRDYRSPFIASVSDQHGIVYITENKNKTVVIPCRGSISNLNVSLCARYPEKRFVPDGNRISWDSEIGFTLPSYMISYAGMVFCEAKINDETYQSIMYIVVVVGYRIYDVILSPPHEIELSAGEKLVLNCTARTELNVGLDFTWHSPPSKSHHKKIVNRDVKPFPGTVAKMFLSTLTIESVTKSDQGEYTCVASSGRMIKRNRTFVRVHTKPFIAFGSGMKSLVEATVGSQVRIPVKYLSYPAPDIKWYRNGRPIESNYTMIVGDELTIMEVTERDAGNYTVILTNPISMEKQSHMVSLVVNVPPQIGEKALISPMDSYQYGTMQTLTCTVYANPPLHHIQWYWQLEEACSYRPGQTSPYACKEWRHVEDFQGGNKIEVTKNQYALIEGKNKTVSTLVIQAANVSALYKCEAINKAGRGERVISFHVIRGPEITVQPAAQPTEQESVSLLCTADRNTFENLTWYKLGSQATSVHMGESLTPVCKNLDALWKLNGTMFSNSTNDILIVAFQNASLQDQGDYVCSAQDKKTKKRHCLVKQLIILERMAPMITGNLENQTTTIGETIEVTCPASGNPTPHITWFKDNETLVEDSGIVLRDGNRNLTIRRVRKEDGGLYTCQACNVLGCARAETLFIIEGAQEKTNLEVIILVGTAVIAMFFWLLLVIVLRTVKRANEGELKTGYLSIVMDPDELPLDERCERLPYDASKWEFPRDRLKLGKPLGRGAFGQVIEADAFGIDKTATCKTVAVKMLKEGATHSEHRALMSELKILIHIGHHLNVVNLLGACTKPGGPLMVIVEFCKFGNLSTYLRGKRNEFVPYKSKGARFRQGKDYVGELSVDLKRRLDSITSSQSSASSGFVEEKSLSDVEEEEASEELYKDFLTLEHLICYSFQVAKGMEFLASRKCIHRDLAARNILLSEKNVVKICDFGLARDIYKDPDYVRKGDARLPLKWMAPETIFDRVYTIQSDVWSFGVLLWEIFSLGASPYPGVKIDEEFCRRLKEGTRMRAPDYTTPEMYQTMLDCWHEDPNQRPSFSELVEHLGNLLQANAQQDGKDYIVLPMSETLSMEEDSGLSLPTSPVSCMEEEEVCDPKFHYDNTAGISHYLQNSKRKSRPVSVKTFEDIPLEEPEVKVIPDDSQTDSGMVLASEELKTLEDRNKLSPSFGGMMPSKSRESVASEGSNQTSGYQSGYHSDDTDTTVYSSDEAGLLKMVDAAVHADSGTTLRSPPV

As for `Cc1nc2c(nc1C)CC1=NC(c3ccccc3)=NC1=C2` [6,7-dimethyl-2-phenylimidazo[4,5-g]quinoxaline], the IC50 on FLK-1 receptor was 88.4 µM; on human EGF-R, more than 100 µM.
